Measurements reported in patent US5244891A, “Injectable compositions of cefepime dihydrochloride hydrate” (priority 1992, dated 1993).
“Also recorded” adds a separate entry of the source. Structures can show the parent of a compound that is named as a salt. Where two headings read alike, the source gives them in different places.

What was measured:
[1] = Elevated temperature storage stability in dry form (potency loss or gain by HPLC); assay type: physicochemical; details: for degraded at 24 h: 1 day
Procedure: Elevated temperature stabilities were determined by storing the preparations in dry containers at temperatures and for time periods as denoted below and potency losses or gains were determined by HPLC. A % potency gain is indicated by a plus sign in front of a figure. A less than 10% potency loss over a 2 to 4 week period at 45-56 deg. C. is usually indicative of less than 10% potency loss over a 2-3 year period at room temperature.

Solubility in water = assay type: physicochemical; details: for solubility in water (in words): for typical injectable compositions
[2] = Formation of insoluble particles on storage; assay type: physicochemical; details: storage at elevated temperatures
Description: The dihydrochloride dihydrate described in Example XIII can be easily dried to give the same dihydrochloride monohydrate described in Examples XI and XII. […] Accordingly, the monohydrate carrying up to about 1% by weight of adventitious water is the preferred form (total water content ca. 2.5-4.1%).

[3] = Weight loss on drying of the hydrate; assay type: physicochemical; details: 57° C., 0.001 mm Hg over P2 O5, 5 days; or 45° C., 10 mm Hg, 2 days
Description: The foregoing procedures of Examples XI and XII routinely produce monohydrate having a water content in the range of 2.46% to 3.70% with an average value of 3.31%. The value calculated from the stoichiometric formula is 3.15%.

various organisms = details: Aburaki et al. U.S. Pat. No. 4,406,899; listed as zwitterion form; cited from earlier work
[4] = dry powder, 45 deg. C. and above, even one week; 10080 min; cited from earlier work
[5] = 45 Deg. C., 1 week, dry container, + = potency gain, 10080 min
[6] = 45 Deg. C., 2 weeks, dry container, + = potency gain, 20160 min
[7] = 45 Deg. C., 4 weeks, dry container, + = potency gain, 40320 min
[8] = 45 Deg. C., 6 weeks, dry container, + = potency gain, 60480 min
[9] = 56 Deg. C., 1 week, dry container, + = potency gain, 10080 min
[10] = dry solid, 100 Deg. C., dry container, + = potency gain, read-out: PERCENT LOSS (potency)
[11] = 56 Deg. C., 2 weeks, dry container, + = potency gain, 20160 min
[12] = dry solid, 45 Deg. C., 2 weeks, dry container, + = potency gain, read-out: PERCENT LOSS (potency)
[13] = listed as sulfuric acid addition salt, sulfate salt
[14] = listed as di-nitric acid addition salt

## CO/N=C(\C(=O)NC1C(=O)N2C(C(=O)[O-])=C(C[N+]3(C)CCCC3)CSC12)c1csc(N)n1 (centres unmarked) [HCl Salt]
[1]; [5]
  PERCENT LOSS (potency): 4.8%
[1]; [6]
  PERCENT LOSS (potency): 2.3%
[1]; [7]
  PERCENT LOSS (potency): 6.0%
[1]; [8]
  PERCENT LOSS (potency): 6.4%
[1]; [9]
  PERCENT LOSS (potency): 6.4%
Solubility in water; listed as mono-hydrochloric acid addition salt
  solubility in water: greater than 200 mg/ml

## CO/N=C(\C(=O)NC1C(=O)N2C(C(=O)[O-])=C(C[N+]3(C)CCCC3)CSC12)c1csc(N)n1 (centres unmarked) [(HCl)2 Salt]
[1]; [5]
  PERCENT LOSS (potency): 0%
[1]; [7]
  PERCENT LOSS (potency): 7.4%
[1]; [9]
  PERCENT LOSS (potency): 0%
[1]; dry solid, 56° C., 4 weeks, read-out: potency loss on storage
  degraded at 672 h: 7.2%
[1]; [10]
  degraded at 24 h: 12.4%
Solubility in water; listed as di-hydrochloric acid addition salt
  solubility in water: greater than 200 mg/ml

## CO/N=C(\C(=O)NC1C(=O)N2C(C(=O)[O-])=C(C[N+]3(C)CCCC3)CSC12)c1csc(N)n1 (stereo not drawn) [Sesquiphosphate Salt, crystalline sesquiphosphate salt of 7-[α-(2-aminothiazol-4-yl)-α-(Z)-methoxyiminoacetamido]-3-[(1-methyl-1-pyrrolidinio)methyl]-3-cephem-4-carboxylate]
[1]; 1 month, 37° C., 43200 min
  Stability, % Loss: 2.5%
[1]; 1 week, 45° C., 10080 min
  Stability, % Loss: 0%
[1]; 4 weeks, 56° C., 40320 min
  Stability, % Loss: 0%
[1]; 3 days, 70° C.
  Stability, % Loss: 0%
[1]; dry solid, 1 week, 56° C., read-out: Stability, % Loss
  degraded at 168 h: 1%
[1]; dry solid, 2 weeks, 45° C., read-out: Stability, % Loss
  degraded at 336 h: 1.4%
[1]; dry solid, 2 weeks, 56° C., read-out: Stability, % Loss
  degraded at 336 h: 1.4%
[1]; dry solid, 4 weeks, 45° C., read-out: Stability, % Loss
  degraded at 672 h: 0.7%
[1]; dry solid, 8 weeks, 45° C.
  degraded at 1344 h: 1.6%
[1]; dry solid, 100° C., read-out: Stability, % Loss
  degraded at 24 h: 10.9%
[1]; dry solid, 7 days, 70° C., read-out: Stability, % Loss
  degraded at 168 h: 1.9%
Solubility in water; listed as sesqui-orthophosphoric acid addition salt
  solubility in water: greater than 200 mg/ml

## CO/N=C(\C(=O)NC1C(=O)N2C(C(=O)[O-])=C(C[N+]3(C)CCCC3)CSC12)c1csc(N)n1 (stereo not drawn) [dihydrate, dihydrate of 7-[α-(2-aminothiazol-4-yl)-α-(Z)-methoxyiminoacetamido]-3-[(1-methyl-1-pyrrolidinio)methyl]-3-cephem-4-carboxylate dihydrochloride]
[2]
  formation of insoluble particles: formation of trace amounts of insoluble particles was observed

## CO/N=C(\C(=O)NC1C(=O)N2C(C(=O)[O-])=C(C[N+]3(C)CCCC3)CSC12)c1csc(N)n1 (stereo not drawn) [monohydrate, crystalline dihydrochloride monohydrate of 7-[α-(2-aminothiazol-4-yl)-α-(Z)-methoxyiminoacetamido]-3-[(1-methyl-1-pyrrolidinio)methyl]-3-cephem-4-carboxylate]
[1]
  storage stability at elevated temperatures (chemical and biological potency): similar
[1]; dry solid, 56° C., 3 weeks
  degraded at 504 h: 0.6%
[1]; dry solid, 56° C., 3 weeks, total water content ca. 2.5-4.1%, read-out: retention of potency
  remaining at 504 h: ≥ 96%
[3]
  loss in weight on drying: no loss in weight

## CO/N=C(\C(=O)NC1C(=O)N2C(C(=O)[O-])=C(C[N+]3(C)CCCC3)CSC12)c1csc(N)n1 (stereo not drawn) [(H3 PO4)2 Salt, crystalline diphosphate salt of 7-[α-(2-aminothiazol-4-yl)-α-(Z)-methoxyiminoacetamido]-3-[(1-methyl-1-pyrrolidinio)methyl]-3-cephem-4-carboxylate]
[1]; [5]
  PERCENT LOSS (potency): 0%
[1]; [7]
  PERCENT LOSS (potency): 1.0%
[1]; [9]
  PERCENT LOSS (potency): 2.7%
[1]; [11]
  PERCENT LOSS (potency): 5.0%
[1]; [12]
  degraded at 336 h: 3%
Solubility in water; listed as di-orthophosphoric acid addition salt
  solubility in water: greater than 200 mg/ml

## CO/N=C(\C(=O)NC1C(=O)N2C(C(=O)[O-])=C(C[N+]3(C)CCCC3)CS[C@H]12)c1csc(N)n1 (stereo partly drawn) [H2 SO4 Salt, 7-[α-(2-aminothiazol-4-yl)-α-(Z)-methoxyiminoacetamido]-3-[(1-methyl-1-pyrrolidinio)methyl]-3-cephem-4-carboxylate sulfate salt]
[1]; 45 Deg. C., 1 week, dry container, + = potency gain, 10080 min, sulfate salt, 10080 min
  PERCENT LOSS (potency): 2.4 to +5%
[1]; 45 Deg. C., 2 weeks, dry container, + = potency gain, 20160 min, sulfate salt, 20160 min
  PERCENT LOSS (potency): 3%
[1]; 45 Deg. C., 4 weeks, dry container, + = potency gain, 40320 min, sulfate salt, 40320 min
  PERCENT LOSS (potency): +5%
[1]; 45 Deg. C., 6 weeks, dry container, + = potency gain, 60480 min, sulfate salt, 60480 min
  PERCENT LOSS (potency): 1.4%
[1]; 56 Deg. C., 1 week, dry container, + = potency gain, 10080 min, sulfate salt, 10080 min
  PERCENT LOSS (potency): 5 to +6%
[1]; 56 Deg. C., 2 weeks, dry container, + = potency gain, 20160 min, sulfate salt, 20160 min
  PERCENT LOSS (potency): +3%
[1]; 56 Deg. C., 4 weeks, dry container, + = potency gain, 40320 min, sulfate salt, 40320 min
  PERCENT LOSS (potency): 0 to +6%
[1]; dry solid, 45-56 deg. C., one month
  degraded at 730 h: < 10%
Solubility in water
  solubility compared to the zwitterion form: limited solubility
Solubility in water; [13]
  solubility in water (in words): reduced solubilities which are insufficient for typical injectable compositions; also recorded: not sufficiently soluble to form compositions of normal concentration for administration
  solubility in water: about 25 mg/ml
Solubility in water; listed as crystalline sulfuric acid addition salt, sulfate salt
  solubility in water: 25 mg/mL

## CO/N=C(\C(=O)NC1C(=O)N2C(C(=O)[O-])=C(C[N+]3(C)CCCC3)CS[C@H]12)c1csc(N)n1 (stereo partly drawn) [Zwitterion, 7-[α-(2-aminothiazol-4-yl)-α-(Z)-methoxyiminoacetamido]-3-[(1-methyl-1-pyrrolidinio)methyl]-3-cephem-4-carboxylate, reference compound]
Various organisms
  spectrum of activity: broader spectrum activity than ceftazidime and cefotaxime; also recorded: broad spectrum utility against various organisms
[1]; dry solid, 45 Deg. C., 1 week, dry container, + = potency gain, read-out: PERCENT LOSS (potency)
  degraded at 168 h: 37%
[1]; [12]
  degraded at 336 h: 51%
[1]; dry solid, 45 Deg. C., 4 weeks, dry container, + = potency gain, read-out: PERCENT LOSS (potency)
  degraded at 672 h: 71%
[1]; dry solid, 56 Deg. C., 1 week, dry container, + = potency gain, read-out: PERCENT LOSS (potency)
  degraded at 168 h: 57%
[1]; [10]
  degraded at 24 h: 100%
[4]
  loss of activity on storage: ≥ 30%

## CO/N=C(\C(=O)NC1C(=O)N2C(C(=O)[O-])=C(C[N+]3(C)CCCC3)CSC12)c1csc(N)n1 (centres unmarked) [(HNO3)2 Salt]
[1]; [5]
  PERCENT LOSS (potency): 8.8%
[1]; [6]
  PERCENT LOSS (potency): 3.4%
[1]; [7]
  PERCENT LOSS (potency): 0.68%
[1]; [8]
  PERCENT LOSS (potency): 10.3%
[1]; [9]
  PERCENT LOSS (potency): 3.7%
[1]; [11]
  PERCENT LOSS (potency): 2.4%
Solubility in water; [14]
  solubility in water (in words): reduced solubilities which are insufficient for typical injectable compositions; also recorded: not sufficiently soluble to form compositions of normal concentration for administration
  solubility in water: about 60 mg/ml
